Reference: US8304421B2, “Indole compounds and their use as radiation sensitizing agents and chemotherapeutic agents” (Vanderbilt University, priority 2008, dated 2012)

System: HUVECs
Experiment: Tubule formation assay on Matrigel
Format: cell-based, Human
Conditions: 25 μM, 24 hrs, assessed under microscope
Experimental: FIG. 5: HUVECs were plated on Matrigel, then treated wither DMSO or Compound 1 for 24 hrs. Tubule formation was assessed by looking under microscope.
Human umbilical vascular endothelial cells (HUVECs) (50,000 cells/well) were plated on Matrigel. After 30 min, the cells were treated either with DMSO or 25 μM Compound 1. Tubule formation was assessed by observing plates under microscope. FIG. 6 is represents 24 hr time point for DMSO and Compound 1.

## N#Cc1ccc(Cn2cc(C=C3C(=O)NC(=O)NC3=O)c3ccccc32)cc1 [Compound 1, 4-((3-((2,4,6-trioxotetrahydropyrimidin-5(6H)-ylidene)methyl)-1H-indol-1-yl)meth-yl)benzonitrile]
  Tubule formation by HUVECs: inhibited the tubule formation
